Test results taken from patent US20240384350A1, “METHODS OF TREATING CANCER WITH KINASE INHIBITORS” (BOARD OF REGENTS, THE UNIVERSITY OF TEXAS SYSTEM, priority 2021, published 2024).

Tests used:
Assay in all cases: Ba/F3 drug screening, Cell Titer Glo, IC50 Mut/WT
Format in all cases: cell-based
EGFR G724S = target: T1, EGFR G724S (Homo sapiens, UniProt P00533, G724S); conditions: Ba/F3 cells, EGFR G724S (PACC), Mut/WT
T1 construct: expressed in transfected cells; host or cells: Ba/F3

EGFR G719A/R776C = target: T2, EGFR G719A/R776C (Homo sapiens, UniProt P00533, G719A/R776C); conditions: Ba/F3 cells, EGFR G719A/R776C (PACC), Mut/WT
T2 construct: expressed in transfected cells; host or cells: Ba/F3

EGFR R776C = target: T3, EGFR R776C (Homo sapiens, UniProt P00533, R776C); conditions: Ba/F3 cells, EGFR R776C (PACC), Mut/WT
T3 construct: host or cells: Ba/F3

EGFR S768dupSVD V769M = target: T4, EGFR S768dupSVD V769M (Homo sapiens, UniProt P00533, INS768MDS/V769M); conditions: Ex20, 72 hours
T4 construct: expressed in transfected cells; host or cells: Ba/F3 cells, retroviral pBabe-Puro vector (vector made by GeneScript from EGFR S768dupSVD, c.2305G > A)
Procedure: Data represent the ratio of the IC50 value for a given TKI for cells with an ex20ins EGFR mutation to the IC50 value for cells with wildtype EGFR.
(§1) Ba/F3 cell generation, drug screening, and IC50 approximations. Ba/F3 cells were obtained as a gift from Dr. Gordon Mills (MD Anderson Cancer Center), and maintained in RPMI (Sigma) containing 10% FBS, 1% penicillin/streptomycin, and 10 ng/ml recombinant mIL-3 (R&D Biosystems). To establish stable Ba/F3 cell lines, Ba/F3 cells were transduced with retroviruses containing mutant EGFR plasmids for 12-24 hours.
After 48-72 hours of transduction, 2 μg/ml puromycin (Invitrogen) was added to Ba/F3 cell lines in complete RPMI. To select for EGFR positive cell lines, cells were stained with PE-EGFR (Biolegend) and sorted by FACS. After sorting, EGFR positive cells were maintained in RPMI containing 10% FBS, 1% penicillin/streptomycin, and 1 ng/ml EGF to support cell viability. Drug screening was performed as previously described^41,42. Shortly, cells were plated in 384-well plates (Greiner Bio-One) at 2000-3000 cells per well in technical triplicate. Seven different concentrations of TKIs or DMSO vehicle were added to reach a final volume of 40 μL per well. After 72 hours, 11 μL of Cell Titer Glo (Promega) was added to each well. Plates were incubated for a minimum of 10 minutes, and bioluminescence was determined using a FLUOstar OPTIMA plate reader (BMG LABTECH). Raw bioluminescence values were normalized to DMSO control treated cells, and values were plotted in GraphPad Prism. […] Drug screens were performed in technical triplicate on each plate and either duplicate or triplicate biological replicates. […] Statistical differences between groups were determined by ANOVA as described in the figure legends.

EGFR Ex19del/L792H = target: T5, EGFR Ex19del/L792H (Homo sapiens, UniProt P00533, DEL746-750/L792H); conditions: Ba/F3 cells, EGFR Ex19del/L792H (PACC), Mut/WT
T5 construct: expressed in transfected cells; host or cells: Ba/F3
Procedure: Data represent the ratio of the IC50 value for a given TKI for cells with a PACC EGFR mutation to the IC50 value for cells with wildtype EGFR.
as §1
(§2) After 48-72 hours of transduction, 2 μg/ml puromycin (Invitrogen) was added to Ba/F3 cell lines in complete RPMI. To select for EGFR positive cell lines, cells were stained with PE-EGFR (Biolegend) and sorted by FACS. After sorting, EGFR positive cells were maintained in RPMI containing 10% FBS, 1% penicillin/streptomycin, and 1 ng/ml EGF to support cell viability. Drug screening was performed as previously described^41,42. Shortly, cells were plated in 384-well plates (Greiner Bio-One) at 2000-3000 cells per well in technical triplicate. Seven different concentrations of TKIs or DMSO vehicle were added to reach a final volume of 40 μL per well. After 72 hours, 11 μL of Cell Titer Glo (Promega) was added to each well. Plates were incubated for a minimum of 10 minutes, and bioluminescence was determined using a FLUOstar OPTIMA plate reader (BMG LABTECH). Raw bioluminescence values were normalized to DMSO control treated cells, and values were plotted in GraphPad Prism. […] Drug screens were performed in technical triplicate on each plate and either duplicate or triplicate biological replicates.

EGFR I740dupIPVAK = conditions: Ba/F3 cells, EGFR I740dupIPVAK (PACC), Mut/WT
EGFR S768I/T790M = target: T6, EGFR S768I/T790M (Homo sapiens, UniProt P00533, S768I/T790M); conditions: T790M-like-3S, 72 hours
T6 construct: expressed in transfected cells; host or cells: Ba/F3
Procedure: Data represent the ratio of the IC50 value for a given TKI for cells with a T790M-like-3S EGFR mutation to the IC50 value for cells with wildtype EGFR.
as §1, §2

EGFR L861Q = target: T7, EGFR L861Q (Homo sapiens, UniProt P00533, L861Q); conditions: Classical-Like, 72 hours
T7 construct: expressed in transfected cells; host or cells: Ba/F3 cells, retroviral pBabe-Puro vector
Procedure: (§3) Data represent the ratio of the IC50 value for a given TKI for cells with a classical-like EGFR mutation to the IC50 value for cells with wildtype EGFR.
as §1
(§4) After 48-72 hours of transduction, 2 μg/ml puromycin (Invitrogen) was added to Ba/F3 cell lines in complete RPMI. To select for EGFR positive cell lines, cells were stained with PE-EGFR (Biolegend) and sorted by FACS. After sorting, EGFR positive cells were maintained in RPMI containing 10% FBS, 1% penicillin/streptomycin, and 1 ng/ml EGF to support cell viability. […] Shortly, cells were plated in 384-well plates (Greiner Bio-One) at 2000-3000 cells per well in technical triplicate. Seven different concentrations of TKIs or DMSO vehicle were added to reach a final volume of 40 μL per well. After 72 hours, 11 μL of Cell Titer Glo (Promega) was added to each well. Plates were incubated for a minimum of 10 minutes, and bioluminescence was determined using a FLUOstar OPTIMA plate reader (BMG LABTECH). Raw bioluminescence values were normalized to DMSO control treated cells, and values were plotted in GraphPad Prism. […] Drug screens were performed in technical triplicate on each plate and either duplicate or triplicate biological replicates.

EGFR K754E = target: T8, EGFR K754E (Homo sapiens, UniProt P00533, K754E); conditions: Classical-Like, 72 hours
T8 construct: expressed in transfected cells; host or cells: Ba/F3 cells, retroviral pBabe-Puro vector

EGFR E709K L858R = target: T9, EGFR E709K L858R (Homo sapiens, UniProt P00533, E709K/L858R); conditions: Classical-Like, 72 hours
T9 construct: expressed in transfected cells; host or cells: Ba/F3 cells, retroviral pBabe-Puro vector
Procedure: as §3, §1, §4

EGFR L858R T790M V843I = target: T10, EGFR L858R T790M V843I (Homo sapiens, UniProt P00533, L858R/T790M/V843I); conditions: T790M-like-3S, 72 hours
T10 construct: expressed in transfected cells; host or cells: Ba/F3

EGFR R776H = target: T11, EGFR R776H (Homo sapiens, UniProt P00533, R776H); conditions: Ba/F3 cells, EGFR R776H (PACC), Mut/WT
T11 construct: host or cells: Ba/F3

EGFR S768I = target: T12, EGFR S768I (Homo sapiens, UniProt P00533, S768I); conditions: Ba/F3 cells, EGFR S768I (PACC), Mut/WT
T12 construct: expressed in transfected cells; host or cells: Ba/F3

EGFR L858R G724S = target: T13, EGFR L858R G724S (Homo sapiens, UniProt P00533, G724S/L858R); conditions: Ba/F3 cells, EGFR L858R G724S (PACC), Mut/WT
T13 construct: expressed in transfected cells; host or cells: Ba/F3 (retroviral transduction, pBabe-Puro based vectors)

EGFR L861R = target: T14, EGFR L861R (Homo sapiens, UniProt P00533, L861R); conditions: Classical-Like, 72 hours
T14 construct: expressed in transfected cells; host or cells: Ba/F3 cells, retroviral pBabe-Puro vector (vector made by GeneScript from EGFR WT)

EGFR L747P = target: T15, EGFR L747P (Homo sapiens, UniProt P00533, L747P); conditions: Ba/F3 cells, EGFR L747P (PACC), Mut/WT
T15 construct: expressed in transfected cells; host or cells: Ba/F3

EGFR L718Q T790M = target: T16, EGFR L718Q T790M (Homo sapiens, UniProt P00533, L718Q/T790M); conditions: T790M-like-3R, 72 hours
T16 construct: expressed in transfected cells; host or cells: Ba/F3
Procedure: Data represent the ratio of the IC50 value for a given TKI for cells with a T790M-like-3R EGFR mutation to the IC50 value for cells with wildtype EGFR.
as §1
After 48-72 hours of transduction, 2 μg/ml puromycin (Invitrogen) was added to Ba/F3 cell lines in complete RPMI. To select for EGFR positive cell lines, cells were stained with PE-EGFR (Biolegend) and sorted by FACS. After sorting, EGFR positive cells were maintained in RPMI containing 10% FBS, 1% penicillin/streptomycin, and 1 ng/ml EGF to support cell viability. […] Shortly, cells were plated in 384-well plates (Greiner Bio-One) at 2000-3000 cells per well in technical triplicate. Seven different concentrations of TKIs or DMSO vehicle were added to reach a final volume of 40 μL per well. After 72 hours, 11 μL of Cell Titer Glo (Promega) was added to each well. Plates were incubated for a minimum of 10 minutes, and bioluminescence was determined using a FLUOstar OPTIMA plate reader (BMG LABTECH). Raw bioluminescence values were normalized to DMSO control treated cells, and values were plotted in GraphPad Prism. […] Drug screens were performed in technical triplicate on each plate and either duplicate or triplicate biological replicates. […] Statistical differences between groups were determined by ANOVA as described in the figure legends.

EGFR L718Q = target: T17, EGFR L718Q (Homo sapiens, UniProt P00533, L718Q); conditions: Ba/F3 cells, EGFR L718Q (PACC), Mut/WT
T17 construct: expressed in transfected cells; host or cells: Ba/F3

EGFR S768I/V769L = target: T18, EGFR S768I/V769L (Homo sapiens, UniProt P00533, S768I/V769L); conditions: Ba/F3 cells, EGFR S768I/V769L (PACC), Mut/WT
T18 construct: host or cells: Ba/F3

EGFR V769L = target: T19, EGFR V769L (Homo sapiens, UniProt P00533, V769L); conditions: Ba/F3 cells, EGFR V769L (PACC), Mut/WT
T19 construct: expressed in transfected cells; host or cells: Ba/F3

EGFR L833V = target: T20, EGFR L833V (Homo sapiens, UniProt P00533, L833V); conditions: Classical-Like, 72 hours
T20 construct: expressed in transfected cells; host or cells: Ba/F3 cells, retroviral pBabe-Puro vector

EGFR Ex19del/C797S = target: T21, EGFR Ex19del/C797S (Homo sapiens, UniProt P00533, C797S/DEL746-750); conditions: Ba/F3 cells, EGFR Ex19del/C797S (PACC), Mut/WT
T21 construct: expressed in transfected cells; host or cells: Ba/F3

EGFR Ex19del L718V = target: T22, EGFR Ex19del L718V (Homo sapiens, UniProt P00533, DEL746-750/L718V); conditions: Ba/F3 cells, EGFR Ex19del L718V (PACC), Mut/WT
T22 construct: expressed in transfected cells; host or cells: Ba/F3

EGFR L858R T790M L718V = target: T23, EGFR L858R T790M L718V (Homo sapiens, UniProt P00533, L718V/L858R/T790M); conditions: T790M-like-3R, 72 hours
T23 construct: expressed in transfected cells; host or cells: Ba/F3

EGFR G724S T790M = target: T24, EGFR G724S T790M (Homo sapiens, UniProt P00533, G724S/T790M); conditions: T790M-like-3R, 72 hours
T24 construct: expressed in transfected cells; host or cells: Ba/F3

EGFR L858R/T790M/C797S = target: T25, EGFR L858R/T790M/C797S (Homo sapiens, UniProt P00533, C797S/L858R/T790M); conditions: T790M-like-3R, 72 hours
T25 construct: expressed in transfected cells; host or cells: Ba/F3

ratio of the IC50 value for cells with a PACC EGFR mutation to the IC50 value for cells with wildtype EGFR (EGFR G724S) | ratio of the IC50 value for cells with a PACC EGFR mutation to the IC50 value for cells with wildtype EGFR (EGFR G719A/R776C) | ratio of the IC50 value for cells with a PACC EGFR mutation to the IC50 value for cells with wildtype EGFR (EGFR R776C) | ratio of IC50 for cells with mutant EGFR to IC50 for cells with wildtype EGFR (Mut/WT) (EGFR S768dupSVD V769M) | ratio of the IC50 value for cells with a PACC EGFR mutation to the IC50 value for cells with wildtype EGFR (EGFR Ex19del/L792H) | ratio of the IC50 value for cells with a PACC EGFR mutation to the IC50 value for cells with wildtype EGFR (EGFR I740dupIPVAK) | ratio of IC50 for cells with mutant EGFR to IC50 for cells with wildtype EGFR (Mut/WT) (EGFR S768I/T790M) | ratio of IC50 for cells with mutant EGFR to IC50 for cells with wildtype EGFR (Mut/WT) (EGFR L861Q) | ratio of IC50 for cells with mutant EGFR to IC50 for cells with wildtype EGFR (Mut/WT) (EGFR K754E) | ratio of IC50 for cells with mutant EGFR to IC50 for cells with wildtype EGFR (Mut/WT) (EGFR E709K L858R) | ratio of IC50 for cells with mutant EGFR to IC50 for cells with wildtype EGFR (Mut/WT) (EGFR L858R T790M V843I) | ratio of the IC50 value for cells with a PACC EGFR mutation to the IC50 value for cells with wildtype EGFR (EGFR R776H) | ratio of the IC50 value for cells with a PACC EGFR mutation to the IC50 value for cells with wildtype EGFR (EGFR S768I) | ratio of the IC50 value for cells with a PACC EGFR mutation to the IC50 value for cells with wildtype EGFR (EGFR L858R G724S) | ratio of IC50 for cells with mutant EGFR to IC50 for cells with wildtype EGFR (Mut/WT) (EGFR L861R) | ratio of the IC50 value for cells with a PACC EGFR mutation to the IC50 value for cells with wildtype EGFR (EGFR L747P) | ratio of IC50 for cells with mutant EGFR to IC50 for cells with wildtype EGFR (Mut/WT) (EGFR L718Q T790M) | ratio of the IC50 value for cells with a PACC EGFR mutation to the IC50 value for cells with wildtype EGFR (EGFR L718Q) | ratio of the IC50 value for cells with a PACC EGFR mutation to the IC50 value for cells with wildtype EGFR (EGFR S768I/V769L) | ratio of the IC50 value for cells with a PACC EGFR mutation to the IC50 value for cells with wildtype EGFR (EGFR V769L) | Compound | also measured
1.174 | 0.2899 | 4.27 | 1.96 | 0.02929 | 0.5025 | 0.1426 | 0.1616 | 0.04901 | 0.0818 | 0.01519 | 0.5095 | 1.09 | 0.5799 | 0.09054 | 3.507 | 1.576 | 5.448 | 1.734 | 1.624 | C=CC(=O)N1CC[C@@H](Oc2nc(Nc3ccc(N4CCC(N5CCN(C)CC5)CC4)cc3)c(C(N)=O)nc2CC)C1 [Naquotinib] | ratio of IC50 for cells with mutant EGFR to IC50 for cells with wildtype EGFR (Mut/WT) (EGFR L833V): 0.02478; ratio of the IC50 value for cells with a PACC EGFR mutation to the IC50 value for cells with wildtype EGFR (EGFR Ex19del/C797S): 11.45; ratio of the IC50 value for cells with a PACC EGFR mutation to the IC50 value for cells with wildtype EGFR (EGFR Ex19del L718V): 0.1035; ratio of IC50 for cells with mutant EGFR to IC50 for cells with wildtype EGFR (Mut/WT) (EGFR L858R T790M L718V): 0.6413; ratio of IC50 for cells with mutant EGFR to IC50 for cells with wildtype EGFR (Mut/WT) (EGFR G724S T790M): 0.1395; ratio of IC50 for cells with mutant EGFR to IC50 for cells with wildtype EGFR (Mut/WT) (EGFR L858R/T790M/C797S): 32.29
0.869 | 0.05772 | 0.2846 | 0.3262 | 0.5146 | 0.1352 | 0.0197 | 0.03861 | 0.04749 | 0.01992 | 0.02498 | 0.03601 | 0.5273 | 0.009244 | 0.01121 | 0.2221 | 0.317 | 1.245 | 0.2253 | 0.1771 | Cc1cc(C(=O)Nc2nc3cccc(Cl)c3n2[C@@H]2CCCCN(C(=O)/C=C/CN(C)C)C2)ccn1 [Nazartinib] | ratio of IC50 for cells with mutant EGFR to IC50 for cells with wildtype EGFR (Mut/WT) (EGFR L833V): 0.002739; ratio of the IC50 value for cells with a PACC EGFR mutation to the IC50 value for cells with wildtype EGFR (EGFR Ex19del/C797S): 3.067; ratio of the IC50 value for cells with a PACC EGFR mutation to the IC50 value for cells with wildtype EGFR (EGFR Ex19del L718V): 0.04632; ratio of IC50 for cells with mutant EGFR to IC50 for cells with wildtype EGFR (Mut/WT) (EGFR L858R T790M L718V): 0.6592; ratio of IC50 for cells with mutant EGFR to IC50 for cells with wildtype EGFR (Mut/WT) (EGFR G724S T790M): 0.1867; ratio of IC50 for cells with mutant EGFR to IC50 for cells with wildtype EGFR (Mut/WT) (EGFR L858R/T790M/C797S): 2.649
0.1827 | 0.1805 | 0.5131 | 0.5379 | 0.01923 | 0.1715 | 0.0215 | 0.05048 | 0.008838 | 0.01609 | 0.000771 | 0.1146 | 0.007216 | 0.02052 | 0.02937 | 0.3924 | 0.3579 | 3.977 | 0.3582 | 0.3121 | C=CC(=O)Nc1cccc(Oc2nc(Nc3ccc(N4CCN(C)CC4)cc3)nc3ccsc23)c1 [Olmutinib] | ratio of IC50 for cells with mutant EGFR to IC50 for cells with wildtype EGFR (Mut/WT) (EGFR L833V): 0.03803; ratio of the IC50 value for cells with a PACC EGFR mutation to the IC50 value for cells with wildtype EGFR (EGFR Ex19del/C797S): 2.14; ratio of the IC50 value for cells with a PACC EGFR mutation to the IC50 value for cells with wildtype EGFR (EGFR Ex19del L718V): 0.0862; ratio of IC50 for cells with mutant EGFR to IC50 for cells with wildtype EGFR (Mut/WT) (EGFR L858R T790M L718V): 0.8754; ratio of IC50 for cells with mutant EGFR to IC50 for cells with wildtype EGFR (Mut/WT) (EGFR G724S T790M): 0.01985; ratio of IC50 for cells with mutant EGFR to IC50 for cells with wildtype EGFR (Mut/WT) (EGFR L858R/T790M/C797S): 4.111
